Patent US11266170B2, “Sweetener and flavor compositions, methods of making and methods of use thereof” (EPC Natural Products Co., Ltd., priority 2018, dated 2022)
Each block holds one compound with its values, some of them ahead of it.

Tests used:
[1] = Sensory evaluation of GSGs and SGs, thaumatin, NHDC and combinations in water (Example 255); details: combinations of EPCalin and NHDC in water, concentrations as in the sample name
Protocol: 4.5 ppm Thaumatin (equivalent to 10 ppm EPCalin) was dissolved in water. Increasing amounts of NHDC (1-5 ppm) were added to the solution and the sensory properties were evaluated.
50 ppm (GSGs and SGs) were dissolved in water. Increasing amounts of NHDC (1-5 ppm) were added to the solution and the sensory properties were evaluated.
50 ppm (GSGs and SGs) and 4.5 ppm Thaumatin (equivalent to 10 ppm EPCalin) were dissolved in water. Increasing amounts of NHDC (1-5 ppm) were added to the solution and the sensory properties were evaluated.

[2] = Kinetics of reaction of Phe with Reb-A, Gluc, Xyl, Suc in dependence of pH-conditions, HPLC/MS (Example 55); format: physicochemical
Protocol: Quantitative evaluation was performed using external standardization.
Kinetics of Reaction in dependence of pH-conditions

panel of four people = assay: Sensory test of Maillard reaction series in glycerol, buffer or dry conditions (Examples 50, 52); format: in vivo; parameters: key to Intensity of Smell: “+” for slight; “++” for moderate; “+++” for very strong
Protocol: The reaction partner (amino acid, carbohydrate source) were dissolved/suspended in the reaction solvent and transferred into a glass beaker filled with sand pre-heated for at least 30 minutes at the reaction temperature in a drying oven. After the planned reaction time, the vials were transferred into ice water. After cooling to room temperature, sensory analysis and analytical characterization was performed.
All tests were performed with negative controls (only reaction solvent, reaction solvent and amino acid, reaction solvent and carbohydrate).
Another series of experiments was performed in […] filled with 10 ml of reaction solvent. The reaction partner (amino acid, carbohydrate source) were dissolved/suspended in the reaction solvent and reflux heated for the time given on heating plates. After the planned reaction time, the flasks were transferred into ice water. After cooling to room temperature, sensory analysis and analytical characterization was performed.
Another series of experiments was performed in 20 ml sealed Pyrex vials. The reaction partner (amino acid, carbohydrate source) were finely grinded and mixed, then transferred in the Pyrex vial. A small volume of water was added and the reaction initiated in a drying oven. After the planned reaction time, the vials were transferred into ice water. After cooling to room temperature, sensory analysis and analytical characterization was performed.
For evaluation of the taste profile, the samples were tested by a panel of four people. 1 trained taster tasted independently the samples first. The taster was asked to describe the taste profile and score 0-5 according to the increasing sugar likeness, bitterness, aftertaste and lingering taste profiles. The first taster was allowed to re-taste, and then make notes for the sensory attributes perceived. Afterwards, another 3 tasters tasted and the attributes were noted and discussed openly to find a suitable description. In case that more than 1 taster disagreed with the results, the tasting was repeated. In some sensory test results (above), the taste rating was expressed by “+”, which means the intensity of the factors is shown by three levels. “+” for slight, “++” for moderate and “+++” for very strong.

3 persons = assay: Sensory analysis of odor/smell, color and taste of reacted samples (Examples 55-62); format: in vivo; details: Example 57, after reaction; 10 ml KH2PO4, pH 7.8, 2.5 h, 120 °C
Protocol: The reaction partners were dissolved in water and then warmed glycerin (60° C.) was added. […]
The taste test was performed as in Example 38.
All samples were assessed at 22° C. after the Maillard reaction was stopped by placing the sealed vials in an ice bath. After 20 minutes in the ice bath the sealed vials were put in a water bath set to 22° C.
The odor/smell was assessed independently by 3 persons; the final description was agreed after discussion. […] The taste was assessed independently by 3 persons either in the original samples or after appropriate dilution to achieve relevant concentrations of sugars and steviol-glycosides (i.e. 5-9% SE); the final description was agreed after discussion.

[3] = Assay to test reducing power (iron-III reduction), Example 64; format: biochemical; details: 100° C., 0-5.0 h, pH 7.8; compared with glucose or xylose
[4] = Assay to test DPPH radical-scavenging activity, Example 65; format: biochemical; details: 100° C., 0-5.0 h, pH 7.8; compared with glucose or xylose
Protocol: 1 mg 1,1-Diphenyl-2-picrylhydrazyl radical (DPPH)/ml ethanol, dilution to assay concentration were prepared in ethanol (40 μg/mL); Calibration samples were prepared with Ascorbic acid in a concentration of 0-10 μg/mL; as a negative control sample, water was used.
Samples in aqueous solution were used as such or diluted with water.
A 0.1 ml sample (or calibration standard) was mixed with 3.9 ml solution of DPPH (100 μMolar) and reacted while protected from light at room temperature for 30 min. Absorbance was determined at 517 nm against ethanol.
10 mM of amino acid and/or 10 mM sugar were dissolved in 10 ml 0.1 mM KH2PO4-buffer, pH=7.8.
The samples were kept at 100° C. in sealed glass vials (Pyrex 15 ml with screw caps) for 0 (before reaction), 2.5 or 5.0 hours. Thereafter the samples were transferred to an ice water bath and cooled down to room temperature. These samples were diluted 1:10 and used for the test assay for anti-oxidant potential.

[5] = reaction of Phe and Reb-A, pH = 5.5, Reb-B from degraded Reb-A, MRIs from degraded Phe
[6] = reaction of Phe and Reb-A, pH = 7.0, Reb-B from degraded Reb-A, MRIs from degraded Phe
[7] = reaction of Phe and Reb-A, pH = 8.5, Reb-B from degraded Reb-A, MRIs from degraded Phe
[8] = Table 52.2, 1 ml water + 9 ml Glycerin, 0.67 h, 100° C. (Table 50.2)
[9] = Table 52.5, 1 ml water + 9 ml Glycerin, 2.0 h, 120° C. (Table 50.5)
[10] = Table 52.1, 1 ml water + 9 ml Glycerin, 1 h, 100° C. (Table 50.1)
[11] = Table 52.6, Glycerin, 10 ml, 100° C., 40 min (Table 50.6)
[12] = Table 52.7, Glycerin, 10 ml, 1 h, 120° C. (Table 50.7)
[13] = reaction of Phe and Suc, pH = 5.5
[14] = reaction of Phe and Suc, pH = 7.0
[15] = reaction of Phe and Suc, pH = 8.5
[16] = reaction of Phe and Gluc, pH = 5.5
[17] = reaction of Phe and Gluc, pH = 7.0
[18] = reaction of Phe and Gluc, pH = 8.5
[19] = reaction of Phe and Reb-A, pH = 5.5
[20] = reaction of Phe and Reb-A, pH = 7.0
[21] = reaction of Phe and Reb-A, pH = 8.5
[22] = Table 52.3, 1 ml water + 9 ml Glycerin, 0.67 h, 100° C. (Table 50.3)

Compound: COc1ccc(CCC(=O)c2c(O)cc(O[C@@H]3O[C@H](CO)[C@@H](O)[C@H](O)[C@H]3O[C@@H]3O[C@@H](C)[C@H](O)[C@@H](O)[C@H]3O)cc2O)cc1O [10 ppm NHDC]
Sensory evaluation [1]: Sweet, steep onset of sweetness, no lingering

Compound: C=C1CC23CC[C@H]4[C@@](C)(CCC[C@@]4(C)C(=O)OC4O[C@H](C(=O)N[C@H](Cc5ccccc5)C(=O)O)[C@@H](O)[C@H](O)[C@H]4O)[C@@H]2CC(O[C@@H]2O[C@H](CO)[C@@H](O)C(O[C@@H]4O[C@H](CO)[C@@H](O)[C@H](O)[C@H]4O)[C@H]2O[C@@H]2O[C@H](CO)[C@@H](O)[C@H](O)[C@H]2O)C1C3 (stereo partly drawn) [MRI (Phe-Reb-A)]
% formation [2, 5]: 10.4% | % formation [2, 6]: 11.3% | % formation [2, 7]: 14.7%

Compound: N[C@@H](Cc1ccccc1)C(=O)O [0.1 mMol Phe]
Taste (panel of four people; [8]): sweet | Intensity of Smell (panel of four people; [9]): + | Smell (panel of four people; [9]): Caramel, burnt | Taste (panel of four people; [9]): sweet

% formation ([2]; reaction of Phe and Suc, pH = 5.5, from degraded Phe): <0.10% | % formation ([2]; reaction of Phe and Suc, pH = 7.0, from degraded Phe): 0.54% | % formation ([2]; reaction of Phe and Suc, pH = 8.5, from degraded Phe): 0.84%
Compound: O=C(O)[C@H](Cc1ccccc1)NCC(=O)[C@@H](O)[C@H](O)[C@H](O)CO [MRI (Phe-Glu)]

Compound: N[C@@H](Cc1ccccc1)C(=O)O [Phe 60 mMol]
Smell (panel of four people; [10]): flowery/bloomy-caramel | Taste (panel of four people; [10]): Sweet

Compound: N[C@@H](CCC(=O)O)C(=O)O [167 mMol Glu]
Smell (panel of four people; [10]): caramel | Taste (panel of four people; [10]): Sweet

Compound: OC[C@H]1OC(O)[C@H](O)[C@@H](O)[C@@H]1O (stereo partly shown) [10 mMol Glu]
Smell (panel of four people; [11]): Slightly Caramel | Smell (panel of four people; [12]): Slightly Caramel

Compound: OC[C@H]1O[C@@](CO)(O[C@H]2O[C@H](CO)[C@@H](O)[C@H](O)[C@H]2O)[C@@H](O)[C@@H]1O [Suc]
% degradation [2, 13]: 3.67% | % degradation [2, 14]: 5.69% | % degradation [2, 15]: 9.81%

Compound: NC(Cc1ccccc1)C(=O)O (single isomer, unassigned) [Phe]
Smell (3 persons): Caramel, burnt | Taste (3 persons): sweet | % degradation [2, 16]: 2.26% | % degradation [2, 17]: 2.18% | % degradation [2, 18]: 4.24% | % degradation [2, 19]: 1.97% | % degradation [2, 20]: 9.07% | % degradation [2, 21]: 12.8% | % degradation [2, 13]: 5.50% | % degradation [2, 14]: 5.19% | % degradation [2, 15]: 5.36% | % degradation ([2]; reaction of Phe and Xyl, pH = 5.5): 4.24% | % degradation ([2]; reaction of Phe and Xyl, pH = 7.0): 4.80% | % degradation ([2]; reaction of Phe and Xyl, pH = 8.5): 9.89%

Compound: C=C1C[C@@]23CC[C@H]4[C@@](C)(CCC[C@@]4(C)C(=O)O[C@@H]4O[C@H](CO)[C@@H](O)[C@H](O)[C@H]4O)[C@@H]2CC[C@]1(O[C@@H]1O[C@H](CO)[C@@H](O)[C@H](O[C@@H]2O[C@H](CO)[C@@H](O)[C@H](O)[C@H]2O)[C@H]1O[C@@H]1O[C@H](CO)[C@@H](O)[C@H](O)[C@H]1O)C3 [Reb-A, Rebaudioside A, reference compound]
% degradation [2, 19]: 8.25% | % degradation [2, 20]: 10.1% | % degradation [2, 21]: 12.6% | active iron-III reduction (anti-oxidant properties) [3]: substantial anti-oxidant properties | radical scavenging properties (anti-oxidant properties) [4]: substantial anti-oxidant properties

Compound: OC[C@H]1OC(O)[C@H](O)[C@@H](O)[C@@H]1O (stereo partly shown) [Glu]
Smell (3 persons): Burnt sugar | Taste (3 persons): Sweet/bitter | % degradation [2, 16]: 3.65% | % degradation [2, 17]: 4.6% | % degradation [2, 18]: 7.62%

Compound: O=C[C@H](O)[C@H]1OC(=O)[C@@H](O)[C@H]1O [0.1 mMol GlucLac]
Intensity of Smell (panel of four people; [9]): +++ | Smell (panel of four people; [9]): Burnt sugar | Taste (panel of four people; [9]): Bitter

% formation [2, 5]: 23.1% | % formation [2, 6]: 22.7% | % formation [2, 7]: 19.1%
Compound: rebaudioside B [RB]

Compound: NCCCC[C@H](N)C(=O)O [0.1 mMol Lys]
Smell (panel of four people; [22]): Popcorn | Taste (panel of four people; [22]): Sweet

Compound: N[C@@H](Cc1ccccc1)C(=O)O [3.3 mMol Phe]
Smell (panel of four people; Table 52.6, Glycerin, 10 ml, 100° C., 5 min (Table 50.6)): Slightly bloomy | Smell (panel of four people; Table 52.6, Glycerin, 10 ml, 100° C., 10 min (Table 50.6)): flowery/bloomy | Smell (panel of four people; Table 52.6, Glycerin, 10 ml, 100° C., 20 min (Table 50.6)): flowery/bloomy | Smell (panel of four people; [11]): flowery/bloomy | Smell (panel of four people; [12]): flowery/bloomy

Compound: C[C@H](N)C(=O)O [0.1 mMol Ala]
Smell (panel of four people; [8]): Agar | Taste (panel of four people; [8]): sweet

Compound: C=C1C[C@@]23CC[C@H]4[C@@](C)(CCC[C@@]4(C)C(=O)O[C@@H]4O[C@H](CO)[C@@H](O)[C@H](O)[C@H]4O)[C@@H]2CC[C@]1(O[C@@H]1O[C@H](CO)[C@@H](O)[C@H](O[C@@H]2O[C@H](CO)[C@@H](O)[C@H](O)[C@H]2O)[C@H]1O[C@@H]1O[C@H](CO)[C@@H](O)[C@H](O)[C@H]1O)C3 [0.05 mMol Reb-A]
Smell (panel of four people; [8]): neutral/unpleasant | Taste (panel of four people; [8]): sweet
